{"source": "paper PMC9851200", "about": "“Multiparameter phenotypic screening for endogenous TFEB and TFE3 translocation identifies novel chemical series modulating lysosome function” (Autophagy, 2022)", "origin": "cited, not measured here", "parameters_in_all_cases": "method as in original PKIS2 published data", "key": {"[1]": {"target": "kinases (KINOMEscan panel) (Homo sapiens, UniProt P19525)", "sequence (P19525 whole entry)": "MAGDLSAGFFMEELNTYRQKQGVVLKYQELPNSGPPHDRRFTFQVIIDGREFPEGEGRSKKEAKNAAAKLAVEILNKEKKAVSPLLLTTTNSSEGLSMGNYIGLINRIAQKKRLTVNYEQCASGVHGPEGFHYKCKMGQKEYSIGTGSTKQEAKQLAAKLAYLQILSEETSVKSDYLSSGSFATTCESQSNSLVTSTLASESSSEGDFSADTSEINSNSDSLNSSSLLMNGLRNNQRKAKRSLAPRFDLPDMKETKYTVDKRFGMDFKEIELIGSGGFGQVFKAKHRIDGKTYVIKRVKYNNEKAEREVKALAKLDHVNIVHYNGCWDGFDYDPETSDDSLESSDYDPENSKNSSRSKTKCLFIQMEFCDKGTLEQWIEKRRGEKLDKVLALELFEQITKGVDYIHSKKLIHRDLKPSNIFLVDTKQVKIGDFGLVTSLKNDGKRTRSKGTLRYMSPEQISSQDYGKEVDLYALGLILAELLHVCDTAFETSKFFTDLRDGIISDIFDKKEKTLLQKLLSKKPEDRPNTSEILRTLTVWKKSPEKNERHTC", "conditions": "kinase ElF2AK2; Published KINOMEscan; ref original PKIS2 published data; cited from earlier work"}, "[2]": {"target": "kinases (KINOMEscan panel) (Homo sapiens, UniProt P35916)", "sequence (P35916 25-1363)": "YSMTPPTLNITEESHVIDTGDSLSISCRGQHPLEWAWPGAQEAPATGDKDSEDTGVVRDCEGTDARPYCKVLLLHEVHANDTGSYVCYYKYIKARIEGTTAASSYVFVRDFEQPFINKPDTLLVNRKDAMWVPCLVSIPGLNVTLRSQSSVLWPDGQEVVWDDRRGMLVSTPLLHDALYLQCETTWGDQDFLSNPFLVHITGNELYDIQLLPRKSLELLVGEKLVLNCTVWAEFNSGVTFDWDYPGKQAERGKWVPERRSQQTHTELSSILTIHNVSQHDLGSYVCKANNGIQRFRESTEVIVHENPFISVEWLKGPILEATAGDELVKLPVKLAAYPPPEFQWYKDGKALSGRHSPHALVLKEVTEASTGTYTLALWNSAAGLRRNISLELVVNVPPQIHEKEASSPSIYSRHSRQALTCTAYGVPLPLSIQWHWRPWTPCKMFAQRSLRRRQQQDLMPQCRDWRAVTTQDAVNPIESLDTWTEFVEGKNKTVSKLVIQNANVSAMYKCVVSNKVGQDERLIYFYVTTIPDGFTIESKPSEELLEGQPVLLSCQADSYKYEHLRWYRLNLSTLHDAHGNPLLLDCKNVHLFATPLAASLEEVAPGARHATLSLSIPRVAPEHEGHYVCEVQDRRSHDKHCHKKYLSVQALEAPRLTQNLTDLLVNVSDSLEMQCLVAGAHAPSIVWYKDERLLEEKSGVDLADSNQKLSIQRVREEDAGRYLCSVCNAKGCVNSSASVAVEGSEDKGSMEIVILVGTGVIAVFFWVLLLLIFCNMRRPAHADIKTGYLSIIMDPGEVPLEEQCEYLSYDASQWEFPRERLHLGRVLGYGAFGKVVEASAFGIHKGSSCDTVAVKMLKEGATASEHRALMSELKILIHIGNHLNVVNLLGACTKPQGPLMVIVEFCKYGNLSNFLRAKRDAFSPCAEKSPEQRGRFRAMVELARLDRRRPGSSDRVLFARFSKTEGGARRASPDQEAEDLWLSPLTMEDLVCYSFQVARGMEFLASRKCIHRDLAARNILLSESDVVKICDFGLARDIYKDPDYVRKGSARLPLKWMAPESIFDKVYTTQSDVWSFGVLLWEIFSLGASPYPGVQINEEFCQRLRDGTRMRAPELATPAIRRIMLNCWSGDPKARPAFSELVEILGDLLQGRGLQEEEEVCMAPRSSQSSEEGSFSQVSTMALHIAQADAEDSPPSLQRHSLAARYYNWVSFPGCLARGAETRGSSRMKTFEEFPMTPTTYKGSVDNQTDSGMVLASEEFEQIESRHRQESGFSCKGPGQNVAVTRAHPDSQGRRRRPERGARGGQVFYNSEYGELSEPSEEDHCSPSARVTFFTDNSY", "conditions": "FLT4; Published KINOMEscan; ref original PKIS2 published data; cited from earlier work"}, "[3]": {"target": "T1, kinases (KINOMEscan panel) (Homo sapiens, UniProt P57058)", "T1 sequence (P57058 1-714)": "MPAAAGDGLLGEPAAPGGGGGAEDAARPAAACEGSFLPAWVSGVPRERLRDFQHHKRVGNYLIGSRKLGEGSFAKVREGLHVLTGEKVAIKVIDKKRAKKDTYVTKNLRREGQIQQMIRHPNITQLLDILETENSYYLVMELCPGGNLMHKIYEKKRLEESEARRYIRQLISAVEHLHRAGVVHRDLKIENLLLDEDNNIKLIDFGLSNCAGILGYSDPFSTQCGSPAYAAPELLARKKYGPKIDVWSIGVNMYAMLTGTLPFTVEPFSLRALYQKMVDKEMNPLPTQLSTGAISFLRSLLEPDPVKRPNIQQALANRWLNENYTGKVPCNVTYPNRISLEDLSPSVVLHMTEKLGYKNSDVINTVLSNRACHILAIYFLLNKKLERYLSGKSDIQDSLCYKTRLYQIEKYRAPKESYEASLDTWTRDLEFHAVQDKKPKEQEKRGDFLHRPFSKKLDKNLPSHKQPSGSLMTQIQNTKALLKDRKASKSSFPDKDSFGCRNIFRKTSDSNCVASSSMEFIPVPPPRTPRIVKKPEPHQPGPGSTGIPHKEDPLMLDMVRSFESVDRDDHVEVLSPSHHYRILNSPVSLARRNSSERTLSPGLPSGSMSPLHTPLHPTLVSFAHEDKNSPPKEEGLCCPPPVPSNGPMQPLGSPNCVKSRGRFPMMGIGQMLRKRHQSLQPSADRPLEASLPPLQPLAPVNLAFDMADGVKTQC", "conditions": "kinase HUNK; Published KINOMEscan; ref original PKIS2 published data; cited from earlier work"}, "[4]": {"target": "kinases (KINOMEscan panel) (Homo sapiens, UniProt Q9HAZ1)", "sequence (Q9HAZ1 whole entry)": "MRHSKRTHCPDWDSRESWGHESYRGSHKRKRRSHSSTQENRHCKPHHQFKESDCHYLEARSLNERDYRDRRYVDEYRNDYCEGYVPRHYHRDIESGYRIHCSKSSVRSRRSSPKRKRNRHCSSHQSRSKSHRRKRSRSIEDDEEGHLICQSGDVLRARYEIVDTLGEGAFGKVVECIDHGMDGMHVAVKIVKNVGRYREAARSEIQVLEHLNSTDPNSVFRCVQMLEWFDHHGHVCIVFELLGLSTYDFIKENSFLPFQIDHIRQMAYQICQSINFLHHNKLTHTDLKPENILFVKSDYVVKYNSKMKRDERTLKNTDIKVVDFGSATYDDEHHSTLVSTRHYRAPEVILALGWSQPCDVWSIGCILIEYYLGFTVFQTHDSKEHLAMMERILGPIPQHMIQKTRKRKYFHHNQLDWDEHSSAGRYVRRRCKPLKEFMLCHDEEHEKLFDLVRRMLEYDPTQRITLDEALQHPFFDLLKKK", "conditions": "kinase CLK4; Published KINOMEscan; ref original PKIS2 published data; cited from earlier work"}, "[5]": {"target": "T2, kinases (KINOMEscan panel) (Homo sapiens, UniProt Q9NRM7)", "T2 sequence (Q9NRM7 1-1088)": "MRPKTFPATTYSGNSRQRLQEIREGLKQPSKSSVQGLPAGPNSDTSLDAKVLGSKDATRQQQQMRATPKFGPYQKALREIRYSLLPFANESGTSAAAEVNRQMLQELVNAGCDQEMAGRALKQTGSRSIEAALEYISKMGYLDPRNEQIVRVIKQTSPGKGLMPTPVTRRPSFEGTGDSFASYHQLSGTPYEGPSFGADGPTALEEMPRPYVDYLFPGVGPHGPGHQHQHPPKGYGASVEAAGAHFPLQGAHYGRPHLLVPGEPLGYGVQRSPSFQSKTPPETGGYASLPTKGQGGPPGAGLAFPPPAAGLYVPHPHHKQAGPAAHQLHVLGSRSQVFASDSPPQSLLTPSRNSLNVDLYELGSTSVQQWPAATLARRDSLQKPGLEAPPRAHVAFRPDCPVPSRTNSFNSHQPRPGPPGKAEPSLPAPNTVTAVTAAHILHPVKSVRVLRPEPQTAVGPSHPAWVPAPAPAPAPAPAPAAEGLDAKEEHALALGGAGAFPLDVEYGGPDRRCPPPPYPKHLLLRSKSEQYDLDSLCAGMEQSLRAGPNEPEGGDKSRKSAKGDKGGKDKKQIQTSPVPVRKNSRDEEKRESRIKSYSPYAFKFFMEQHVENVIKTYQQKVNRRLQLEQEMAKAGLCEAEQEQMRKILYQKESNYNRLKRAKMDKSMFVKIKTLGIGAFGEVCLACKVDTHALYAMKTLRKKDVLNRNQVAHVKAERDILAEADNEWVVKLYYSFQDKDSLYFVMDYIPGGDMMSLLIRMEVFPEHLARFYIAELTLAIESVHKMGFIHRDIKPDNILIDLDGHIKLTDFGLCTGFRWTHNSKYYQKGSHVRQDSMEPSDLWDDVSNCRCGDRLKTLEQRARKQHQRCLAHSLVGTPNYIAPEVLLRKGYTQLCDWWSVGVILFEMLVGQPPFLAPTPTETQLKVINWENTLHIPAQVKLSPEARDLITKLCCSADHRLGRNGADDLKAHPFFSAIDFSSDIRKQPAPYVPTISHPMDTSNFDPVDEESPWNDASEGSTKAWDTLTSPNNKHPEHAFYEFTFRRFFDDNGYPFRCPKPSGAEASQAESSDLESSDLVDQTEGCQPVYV", "conditions": "Published KINOMEscan; ref original PKIS2 published data; cited from earlier work"}}, "data": [{"smiles": "Cc1cccc(-c2nc(Nc3ccncc3)c3ccccc3n2)n1", "note": "[NK215]", "values": [{"measurement": "KINOMEscan ElF2AK2", "setting": "[1]", "result": 2}, {"measurement": "KINOMEscan FLT4", "setting": "[2]", "result": 1}, {"measurement": "KINOMEscan HUNK", "setting": "[3]", "result": 0}, {"measurement": "KINOMEscan CLK4", "setting": "[4]", "result": 0}, {"measurement": "KINOMEscan LATS2", "setting": "[5]", "result": 0}]}]}
